According to patent publication US12187717B2, “Compound and use thereof in treating autoimmune diseases” (PARENCHYMA BIOTECH INC., priority 2022, dated 2025):
Like-named read-outs stand apart in the source and are kept apart here.

Key:
[1] = test system: experimental autoimmune encephalomyelitis (EAE); experiment: Experimental autoimmune encephalomyelitis (EAE) model of multiple sclerosis; format: in vivo, C57BL/6 mice; conditions: 10 mg/kg oral daily, 15th to 20th days; 21st day; 0-5 stages; solvent control 2.9±1.92
Protocol: On day 0 of the experiment, myelin oligodendrocyte glycoprotein (MOG) 35-55 peptide (MOG35-55, Peptron) (200 μg), heat killed Mmycobacterium tuberculosis, Difco, Cat No. 231141) (500 μg), and an adjuvant (incomplete freund's adjuvant, Sigma Aldrich, Cat No. F5506) were mixed for 7 minutes to form an emulsion. MOG35-55 emulsion was subcutaneously injected into both flanks of C57BL/6 mice (7-8 weeks old, female), respectively, and then 100 μl of pertussis toxin (Sigma Aldrich, Cat No. P2980) (200 ng) was administered into the tail vein. On the 2nd day of the experiment, an equal amount of pertussis toxin was administered intravenously. […]
In the compound 6 administration group according to an embodiment of the present invention, 10 mg/kg of Compound 6 per mouse was completely dissolved in an ethanol-Cremophor EL mixture corresponding to 7.5% (v/v) of the administered dose, and then, was diluted in phosphate buffered saline to prepare the final ethanol:Cremophor EL:phosphate buffered saline (0.375:0.375:9.25, v/v/v), followed by oral administration with 200 μl of the prepared solution daily for a total of 6 times from the 15th to 20th days of the experiment. The multiple sclerosis index was visually observed and recorded in the severity index system classified into 0-5 stages. […]

[2] = Pharmacokinetic parameters after oral or intravenous administration; format: in vivo; conditions: rats; for bioavailability: read-out: Bioavailability (F %); for increase of AUClast compared to Comparative Example 1 / increase of Cmax compared to Comparative Example 1: oral
Protocol: For rats, an oral administration group was fasted for 16 hours, and an intravenous administration group was subjected to intravenous administration with 10 mL/kg of solution prepared by completely dissolving Compound 6 in an ethanol-Cremophor EL mixture corresponding to 7.5% (v/v) of the administered dose, and then diluting in phosphate buffered saline so as to be the final ethanol:Cremophor EL:phosphate buffered saline (0.375:0.375:9.25, v/v/v), without fasting, at the dose concentration listed in Table 3. The oral administration group was supplied with food about 4 hours after administration. Blood collection was performed on the intravenous administration group after 0.083, 0.5, 1, 2, 4, 8, 24 hours from the administration and on the oral administration group after 0.5, 1, 2, 4, 8, 12, 24 hours from the administration, and plasma was recovered using centrifugation. In the recovered plasma, the drug concentration in the plasma was measured using UHPLC-MS/MS method.

[3] = test system: IL-6; experiment: IL-6 production of A549 epithelial cells by IL-1β stimulation; format: cell-based, Human; conditions: A549, 5 μM, 48 hours then IL-1β 24 hours, vs control
Protocol: In order to assess the inhibitory effects of production of IL-6 by the compounds of the present invention prepared as above, an IL-6 production test of epithelial cells by stimulation of IL-1β was performed.
After recovering A549 cells under culture in DMEM-fetal bovine serum (FBS) 10% medium and confirming that the survival rate is 97% or more through trypan blue staining, the recovered product was centrifuged at a speed of 1200 rpm for 5 minutes at room temperature, and the cells were prepared by resuspending them in DMEM-10% fetal bovine serum medium at 1×10^6 cells/3 ml. Thereafter, the cells were dispensed by 3 ml onto a 60 mm plate, and each dish was treated with 50 μl of Compounds 6, 9, 21, 32 and 39 at a concentration of 5 μM diluted in DMEM medium, and then cultured in a cell incubator (5% CO2 incubator) for 48 hours. Then, the cells were treated with 50 μl of human recombinant IL-1β at a concentration of 12.5 ng/ml diluted in DMEM medium, followed by culturing the same in a cell incubator (5% CO2 incubator) for 24 hours. As a control, 50 μl of 0.05% dimethylsulfoxide (DMSO)/DMEM medium was used for treatment.
(§1) The cultured cells were recovered to prepare an mRNA sample. […] From the separated RNA, cDNA was synthesized by reverse transcription, and the expression of CYP1A1 was confirmed through a real-time polymerase chain reaction (PCR) using iQ SYBR-Green Supermix (Bio-rad) in a CFX96 (Bio-rad) detection system. […] Herein, one (1) fold was set using the control.
(§2) The real-time polymerase chain reaction was performed under the conditions of 45 cycles at an annealing temperature of 58° C., wherein the following primer sequences were used.

[4] = test system: CYP1A1; experiment: Induction of CYP1A1 mRNA expression in HepG2 (real-time PCR); format: cell-based, Human; conditions: HepG2, 1 μM, 24 hours, vs control (vehicle)
Protocol: In order to confirm target specificity of the compounds of an embodiment of the present invention prepared as above, it was confirmed whether the expression levels of CYP1A1 mRNA and CYP1A1 protein, which are AHR target genes, were increased.
After recovering HepG2 under culture in DMEM-fetal bovine serum (FBS) 10% medium and then confirming that the survival rate is 97% or more through trypan blue staining, the recovered product was centrifuged at a speed of 1200 rpm for 5 minutes at room temperature, and the cells were prepared by resuspending them in DMEM-fetal calf serum 10% medium at 3×10^5 cells/ml. Thereafter, the cells were dispensed onto a 60 mm dish by 3 ml, and each dish was treated with 50 μl of Compounds 6, 21, 32 and 39 at a concentration of 1 μM diluted in DMEM medium, and then cultured in a cell incubator (5% CO2 incubator) for 24 hours. As a control, 50 μl of 0.05% dimethylsulfoxide (DMSO)/DMEM medium was used for treatment.
as §1, §2

[5] = rat, plasma, Intravenous (IV), 1 mg/kg
[6] = rat, plasma, Oral (PO), 10 mg/kg
[7] = rat, plasma, Oral (PO), 50 mg/kg
[8] = Oral (PO), 10 mg/kg (reference dose, dose ratio 1)
[9] = Oral (PO), 50 mg/kg relative to 10 mg/kg (dose ratio 5)
[10] = 10 mg/kg vs Comparative Example 1 at 10 mg/kg
[11] = 50 mg/kg vs Comparative Example 1 at 100 mg/kg

O=C(Cc1c[nH]c2ccc(Cl)cc12)Nc1nc2ccc(N3CCOCC3)cc2s1 [Compound 6, 2-(5-chloro-1H-indol-3-yl)-N-(6-morpholinobenzo[d]thiazol-2-yl)acetamide]
disease severity index (EAE) [1]: 0.92±0.58
AUC(0-t) [2, 5]: 1160 ng·h/mL
C0 [2, 5]: 1420 ng/mL
clearance [2, 5]: 14.4 mL/min/kg
half-life [2, 5]: 1.04 h
Vd ([2]; rat, plasma, Intravenous (IV), 1 mg/kg, read-out: Vdss): 0.924 L/kg
AUC(0-t) [2, 6]: 4350 ng·h/mL
Cmax [2, 6]: 742 ng/mL
Tmax [2, 6]: 2 h
half-life [2, 6]: 2 h
bioavailability [2, 6]: 37.3%
AUC(0-t) [2, 7]: 43100 ng·h/mL
Cmax [2, 7]: 4590 ng/mL
Tmax [2, 7]: 4 h
half-life [2, 7]: 3.83 h
bioavailability [2, 7]: 73.9%
AUClast Ratio [2, 8]: 1.0
Cmax ratio [2, 8]: 1.0
AUClast Ratio [2, 9]: 9.9
Cmax ratio [2, 9]: 6.2
increase of AUClast compared to Comparative Example 1 [2, 10]: 5.9 times
increase of Cmax compared to Comparative Example 1 [2, 10]: 11.9 times
increase of AUClast compared to Comparative Example 1 [2, 11]: 66.8 times
increase of Cmax compared to Comparative Example 1 [2, 11]: 30.2 times
IL-6 production of A549 by IL-1β stimulation [3]: significantly reduced
CYP1A1 mRNA expression level [4]: significantly induced
